Test: recombinant UMI read abundance after kanamycin selection (control-corrected) (log10(CPM+1)); higher = more efficient recombination; extreme values may be limits of the assay; sequences stand for … in AGTGCAGAGAAAATCGGCCAGTTTTCTCTGCCTGCAGTCCGCATGCCGTGGGACCCCTTGGGTTCTAACCTGTTGCCTAGATTTATGCAGCGGACTGCCTTTCTCCCAAAGTGATAAACCGG…AGGTTGGTTTCACT; site = the 11-nt donor
Procedure, shortened: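 Pooled Escherichia coli screen of donor and donor-binding-loop pairs for the IS621 bridge recombinase. Each pair sits with a 12-nt UMI on a plasmid carrying a promoterless kanamycin gene. The library was co-electroporated with a target plasmid encoding a fixed target and T7-inducible recombinase, then plated with IPTG (0.07 mM) plus kanamycin, or unselected, each in two replicates. Recombinant UMIs were PCR-amplified across the donor–target junction and sequenced. Counts became CPM, averaged over replicates, scaled by control-derived factors and reported as log10(CPM+1).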
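Also: IS621 bridge recombinase in Escherichia coli cells against a fixed T5 target plasmid.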

Point of comparison: “CACTTAACATGGACCGGTTTTCCCGGTAATCCGTATTTGCC (site CACTTAACTGG)”, “recombinant UMI read abundance (log10)” value 0.774. Against it:
- GGTCCAACATGGACCGGTTTTCCCGGTAATCCGTATTTGTG (site GGTCCAACTCA) — lower, 0.00564
- TTAGTATCATGGACCGGTTTTCCCGGTAATCCGTATTTGTC (site CTAGTATCTGT) — lower, 0
- CGTTTGGCATGGACCGGTTTTCCCGGTAATCCGTATTTGCT (site CGTTTGGCTAC) — lower, 0.00533
- CTTGGATCATGGACCGGTTTTCCCGGTAATCCGTATTTGAC (site CTTGGATCTGT) — lower, 0
- CCCTTCGCATGGACCGGTTTTCCCGGTAATCCGTATTTGGG (site CCCTTCGCTCC) — lower, 0.0148
- GGCCTAGCATGGACCGGTTTTCCCGGTAATCCGTATTTGTT (site AGCCTAGCTAA) — lower, 0
- ATGAAGACATGGACCGGTTTTCCCGGTAATCCGTATTTGGA (site AGGAAGACTTG) — lower, 0
- CGGGAGTCATGGACCGGTTTTCCCGGTAATCCGTATTTGCC (site CGGGAGCCTGG) — lower, 0
- CGTGGACCATGGACCGGTTTTCCCGGTAATCCGTATTTGTT (site CGTGGAACTAA) — lower, 0.00973
- CACATGGCATGGACCGGTTTTCCCGGTAATCCGTATTTGTA (site CACATGGCTTA) — higher, 2.31
- TATGTAGCATGGACCGGTTTTCCCGGTAATCCGTATTTGTT (site TATGTAGCTAA) — higher, 1.23
- AGGTTCACATGGACCGGTTTTCCCGGTAATCCGTATTTGTG (site AGGTTCTCTCA) — lower, 0.00699
- CGGAATCCATGGACCGGTTTTCCCGGTAATCCGTATTTGTT (site CGGAACGCTAA) — lower, 0.00389
- CGGGAGTCATGGACCGGTTTTCCCGGTAATCCGTATTTGCC (site CGGAAGTCTGG) — higher, 2.67
- ACCCTAGCATGGACCGGTTTTCCCGGTAATCCGTATTTGTT (site ATCCTAGCTAA) — lower, 0.016
- GTTCGAGCATGGACCGGTTTTCCCGGTAATCCGTATTTGGA (site GTTCGAGCTTA) — within 0.2 log units, 0.635
- AGCTCATCATGGACCGGTTTTCCCGGTAATCCGTATTTGGG (site AGCTCATCTCC) — within 0.2 log units, 0.833
- GGGCAATCATGGACCGGTTTTCCCGGTAATCCGTATTTGTG (site GGGCAATCTCA) — higher, 1.92
- TTAGCGGCATGGACCGGTTTTCCCGGTAATCCGTATTTGTG (site TTAGCAGCTCA) — lower, 0.356
- TCCTTGACATGGACCGGTTTTCCCGGTAATCCGTATTTGCT (site TACTTGACTAG) — lower, 0.397
- AATTATGCATGGACCGGTTTTCCCGGTAATCCGTATTTGGA (site AATTAAGCTTC) — lower, 0.54
- GCCACGTCATGGACCGGTTTTCCCGGTAATCCGTATTTGCA (site GCCACGTCTTG) — higher, 2.76
- CCCTCGCCATGGACCGGTTTTCCCGGTAATCCGTATTTGCC (site CCCTTGCCTGG) — lower, 0.011
- AATGTACCATGGACCGGTTTTCCCGGTAATCCGTATTTGCT (site AATGTACCTAG) — lower, 0
- CATGTGACATGGACCGGTTTTCCCGGTAATCCGTATTTGAT (site CATGTGACTAT) — higher, 2.03
- TGGACATCATGGACCGGTTTTCCCGGTAATCCGTATTTGCT (site CGGACATCTAG) — higher, 2.04
- GAGCAAGCATGGACCGGTTTTCCCGGTAATCCGTATTTGCA (site GAGCAAGCTTG) — higher, 2.68
- CGATCATCATGGACCGGTTTTCCCGGTAATCCGTATTTGCT (site CGATCATCTTA) — lower, 0
- TCCACGCCATGGACCGGTTTTCCCGGTAATCCGTATTTGTA (site TCCACGCCTTA) — lower, 0.0284
- GTACAAGCATGGACCGGTTTTCCCGGTAATCCGTATTTGCA (site GTACAAGCTTG) — higher, 2.69
- AAGCCTTCATGGACCGGTTTTCCCGGTAATCCGTATTTGGT (site AAGCCTTCTAC) — within 0.2 log units, 0.585
- GTTCGAGCATGGACCGGTTTTCCCGGTAATCCGTATTTGGA (site GTTCGAGCTTC) — lower, 0.499
- AGTAATCCATGGACCGGTTTTCCCGGTAATCCGTATTTGGT (site AGTAATCCTAC) — lower, 0.00506
- CTAGTATCATGGACCGGTTTTCCCGGTAATCCGTATTTGCC (site CTAGTATCTGC) — higher, 2.28
- CGGAATCCATGGACCGGTTTTCCCGGTAATCCGTATTTGTT (site CGTTATCCTAA) — lower, 0.00294
- CGAGAGGCATGGACCGGTTTTCCCGGTAATCCGTATTTGGG (site CGAGAGGCTCC) — within 0.2 log units, 0.928
- CGATAATCATGGACCGGTTTTCCCGGTAATCCGTATTTGCG (site CGATCATCTAG) — lower, 0
- CCTAAAGCATGGACCGGTTTTCCCGGTAATCCGTATTTGAG (site CCTAAAGCTCT) — within 0.2 log units, 0.599
- GGGAAGACATGGACCGGTTTTCCCGGTAATCCGTATTTGCA (site CGGAAGACTTG) — lower, 0
- CCGTTTGCATGGACCGGTTTTCCCGGTAATCCGTATTTGTG (site CCGTTAGCTCA) — lower, 0.00545
- CGTTTGGCATGGACCGGTTTTCCCGGTAATCCGTATTTGCT (site CGTTGGGCTAG) — lower, 0
- CGGAATCCATGGACCGGTTTTCCCGGTAATCCGTATTTGTG (site CGGAATCCTAA) — lower, 0
- CTATACACATGGACCGGTTTTCCCGGTAATCCGTATTTGCT (site CTATACACTAG) — higher, 2.38
- CCCCACACATGGACCGGTTTTCCCGGTAATCCGTATTTGTA (site CCCCACACTTA) — higher, 1.14
- CGGAATCCATGGACCGGTTTTCCCGGTAATCCGTATTTGTT (site CTGAATCCTCA) — lower, 0.0195
- CGATCATCATGGACCGGTTTTCCCGGTAATCCGTATTTGCT (site ACATCATCTAG) — higher, 1.28
- TAGAATACATGGACCGGTTTTCCCGGTAATCCGTATTTGCA (site TAGAATACTTG) — higher, 2.18
- TCGTTCGCATGGACCGGTTTTCCCGGTAATCCGTATTTGCT (site TCGTTCGCTAG) — lower, 0
- AGGAAGTCATGGACCGGTTTTCCCGGTAATCCGTATTTGTA (site AGGAAGTCTTA) — higher, 2.97
- TTATGAGCATGGACCGGTTTTCCCGGTAATCCGTATTTGGG (site TGATGAGCTCC) — lower, 0.0171
- CGTTTGGCATGGACCGGTTTTCCCGGTAATCCGTATTTGCT (site CGTTTGGCTAG) — lower, 0
- TAAACTCCATGGACCGGTTTTCCCGGTAATCCGTATTTGTA (site TAAATTCCTTA) — lower, 0
- AACCGTCCATGGACCGGTTTTCCCGGTAATCCGTATTTGAG (site AACCGTCCTCT) — lower, 0.0226
- CGGAATCCATGGACCGGTTTTCCCGGTAATCCGTATTTGTT (site CGTAAGCCTAA) — lower, 0.0106
- CGTCTGACATGGACCGGTTTTCCCGGTAATCCGTATTTGAC (site CGTCTGACTGT) — within 0.2 log units, 0.908
- CTCGTATCATGGACCGGTTTTCCCGGTAATCCGTATTTGAC (site CTCGTATCTGT) — higher, 2.6
- CGATCATCATGGACCGGTTTTCCCGGTAATCCGTATTTGCT (site CGATCTTCTAA) — lower, 0
- TGCCTATCATGGACCGGTTTTCCCGGTAATCCGTATTTGTT (site TGCCTATCTAA) — lower, 0.0105
- CACTTGACATGGACCGGTTTTCCCGGTAATCCGTATTTGCT (site AACTTGACTAG) — lower, 0
- CCCCACACATGGACCGGTTTTCCCGGTAATCCGTATTTGTA (site CCGCACACTTA) — lower, 0.021
- GCCACGCCATGGACCGGTTTTCCCGGTAATCCGTATTTGTC (site GCCACGCCTTA) — lower, 0.0128
- GAAGATTCATGGACCGGTTTTCCCGGTAATCCGTATTTGTC (site GAAGATTCTAA) — lower, 0.564
- CTGAATCCATGGACCGGTTTTCCCGGTAATCCGTATTTGTT (site CGGAATCCTAA) — lower, 0
- GCGAAGCCATGGACCGGTTTTCCCGGTAATCCGTATTTGGC (site GCGAAGCCTCC) — lower, 0
- CTCTAAACATGGACCGGTTTTCCCGGTAATCCGTATTTGCT (site CTCTAGACTAG) — lower, 0.36
- ACATCTACATGGACCGGTTTTCCCGGTAATCCGTATTTGTG (site ACATCTACTCG) — lower, 0.279
- GTGATAACATGGACCGGTTTTCCCGGTAATCCGTATTTGGC (site GTGATAACTGC) — higher, 2.59
- TAATGAGCATGGACCGGTTTTCCCGGTAATCCGTATTTGGG (site TAATGAGCTCC) — lower, 0.304
- ACCGTTACATGGACCGGTTTTCCCGGTAATCCGTATTTGTC (site ACCGTTACTGA) — higher, 1.49
- ATGAAGACATGGACCGGTTTTCCCGGTAATCCGTATTTGCA (site AGGAAGACTTG) — higher, 1.02
- GGCCCCCCATGGACCGGTTTTCCCGGTAATCCGTATTTGTT (site GGCCCCCCTAA) — lower, 0.0352
- ATCCTAGCATGGACCGGTTTTCCCGGTAATCCGTATTTGAG (site ATCCCAGCTCT) — lower, 0.0117
- TTCGGCACATGGACCGGTTTTCCCGGTAATCCGTATTTGAG (site TTCGGCACTCT) — lower, 0.00333
- CACTCCTCATGGACCGGTTTTCCCGGTAATCCGTATTTGCC (site CACGCCTCTGG) — lower, 0.524
